Test results reported in ChEMBL document CHEMBL4610055, “Discovery and optimization of novel pyridines as highly potent and selective glycogen synthase kinase 3 inhibitors” (Bioorg Med Chem Lett, 2020).

How the values were obtained:
[1] = Inhibition of GSK3 (unknown origin) using CREB peptide as substrate; parameters: species or system Homo sapiens
[2] = Inhibition of GSK3 in CHO cells expressing insulin receptor assessed as activation of glycogen synthase measured after 30 mins in presence of glucose-6-phosphate by filter paper assay; type: cell-based; conditions: Cricetulus griseus, 0.5 h
[3] = Activity in CHO cells expressing insulin receptor assessed as activation of glycogen synthase
[4] = molecular target: Glycogen synthase kinase-3 alpha (Homo sapiens) (UniProt P49840); experiment: Inhibition of wild-type human full length GSK3A (M1 to S483 residues) expressed in bacterial expression system at 10 uM by Kinomescan method relative to control
Chain of Glycogen synthase kinase-3 alpha (Homo sapiens) (P49840 2-483 limits assumed): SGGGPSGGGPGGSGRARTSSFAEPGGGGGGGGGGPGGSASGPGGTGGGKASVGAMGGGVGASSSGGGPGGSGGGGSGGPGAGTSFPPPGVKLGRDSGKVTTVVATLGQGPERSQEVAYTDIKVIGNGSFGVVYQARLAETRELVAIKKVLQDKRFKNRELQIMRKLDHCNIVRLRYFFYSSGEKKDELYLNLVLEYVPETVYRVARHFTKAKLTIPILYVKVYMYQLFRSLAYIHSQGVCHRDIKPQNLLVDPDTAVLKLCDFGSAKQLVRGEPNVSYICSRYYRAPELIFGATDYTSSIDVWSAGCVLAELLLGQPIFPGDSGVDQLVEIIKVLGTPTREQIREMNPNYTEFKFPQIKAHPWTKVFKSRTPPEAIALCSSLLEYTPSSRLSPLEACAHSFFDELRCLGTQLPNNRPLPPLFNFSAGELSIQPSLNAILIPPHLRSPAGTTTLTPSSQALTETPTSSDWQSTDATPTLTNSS

[5] = molecular target: Glycogen synthase kinase-3 beta (Homo sapiens) (UniProt P49841); experiment: Inhibition of wild-type human full length GSK3B (M1 to T433 residues) expressed in mammalian expression system at 10 uM by Kinomescan method relative to control
Chain of Glycogen synthase kinase-3 beta (Homo sapiens) (P49841 whole entry, looked up, the tested form may be a part): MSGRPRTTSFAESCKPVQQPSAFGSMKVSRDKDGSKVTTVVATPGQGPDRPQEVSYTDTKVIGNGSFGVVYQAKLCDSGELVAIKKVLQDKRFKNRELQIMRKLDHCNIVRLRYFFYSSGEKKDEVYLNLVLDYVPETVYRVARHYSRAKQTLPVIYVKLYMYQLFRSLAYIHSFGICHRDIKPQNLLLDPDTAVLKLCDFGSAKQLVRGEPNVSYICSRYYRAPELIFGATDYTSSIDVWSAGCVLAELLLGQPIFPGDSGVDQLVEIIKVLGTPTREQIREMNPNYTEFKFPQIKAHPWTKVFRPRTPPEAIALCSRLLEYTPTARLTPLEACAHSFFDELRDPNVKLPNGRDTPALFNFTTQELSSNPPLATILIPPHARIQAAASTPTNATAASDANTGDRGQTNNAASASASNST

[6] = molecular target: Mitogen-activated protein kinase 8 (Homo sapiens) (UniProt P45983); experiment: Inhibition of wild-type human full length JNK1 (M1 to Q384 residues) expressed in mammalian expression system at 10 uM by Kinomescan method relative to control
Chain of Mitogen-activated protein kinase 8 (Homo sapiens) (P45983 whole entry, the tested form may be a part): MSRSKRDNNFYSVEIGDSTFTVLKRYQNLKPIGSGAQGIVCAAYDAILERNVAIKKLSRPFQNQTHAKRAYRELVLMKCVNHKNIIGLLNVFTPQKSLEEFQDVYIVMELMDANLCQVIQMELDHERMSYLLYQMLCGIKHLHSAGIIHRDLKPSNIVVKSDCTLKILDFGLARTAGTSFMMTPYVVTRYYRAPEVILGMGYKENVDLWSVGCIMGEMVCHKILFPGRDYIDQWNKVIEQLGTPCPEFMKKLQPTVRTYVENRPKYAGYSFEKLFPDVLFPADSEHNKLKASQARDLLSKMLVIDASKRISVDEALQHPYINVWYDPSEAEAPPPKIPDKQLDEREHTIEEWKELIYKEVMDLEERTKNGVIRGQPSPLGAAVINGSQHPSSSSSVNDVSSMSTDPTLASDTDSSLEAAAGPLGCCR

[7] = molecular target: Mitogen-activated protein kinase 9 (Homo sapiens) (UniProt P45984); experiment: Inhibition of wild-type human full length JNK2 (M1 to Q382 residues) expressed in mammalian expression system at 10 uM by Kinomescan method relative to control
Chain of Mitogen-activated protein kinase 9 (Homo sapiens) (P45984 whole entry, looked up, the tested form may be a part): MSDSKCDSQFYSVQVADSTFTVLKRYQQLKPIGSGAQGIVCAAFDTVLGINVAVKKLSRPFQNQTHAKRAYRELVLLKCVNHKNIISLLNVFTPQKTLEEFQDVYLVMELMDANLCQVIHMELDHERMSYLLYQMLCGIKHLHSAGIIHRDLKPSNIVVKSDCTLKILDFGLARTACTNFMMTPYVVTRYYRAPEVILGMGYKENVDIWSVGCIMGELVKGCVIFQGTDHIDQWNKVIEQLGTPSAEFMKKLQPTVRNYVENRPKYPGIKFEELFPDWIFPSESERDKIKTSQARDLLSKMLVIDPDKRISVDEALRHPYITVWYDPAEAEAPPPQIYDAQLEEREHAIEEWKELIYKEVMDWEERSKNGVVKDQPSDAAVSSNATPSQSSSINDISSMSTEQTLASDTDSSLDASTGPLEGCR

[8] = molecular target: Mitogen-activated protein kinase 10 (Homo sapiens) (UniProt P53779); experiment: Inhibition of wild-type human partial length JNK3 (V28 to Q422 residues) expressed in mammalian expression system at 10 uM by Kinomescan method relative to control
Chain of Mitogen-activated protein kinase 10 (Homo sapiens) (P53779 whole entry, the tested form may be a part): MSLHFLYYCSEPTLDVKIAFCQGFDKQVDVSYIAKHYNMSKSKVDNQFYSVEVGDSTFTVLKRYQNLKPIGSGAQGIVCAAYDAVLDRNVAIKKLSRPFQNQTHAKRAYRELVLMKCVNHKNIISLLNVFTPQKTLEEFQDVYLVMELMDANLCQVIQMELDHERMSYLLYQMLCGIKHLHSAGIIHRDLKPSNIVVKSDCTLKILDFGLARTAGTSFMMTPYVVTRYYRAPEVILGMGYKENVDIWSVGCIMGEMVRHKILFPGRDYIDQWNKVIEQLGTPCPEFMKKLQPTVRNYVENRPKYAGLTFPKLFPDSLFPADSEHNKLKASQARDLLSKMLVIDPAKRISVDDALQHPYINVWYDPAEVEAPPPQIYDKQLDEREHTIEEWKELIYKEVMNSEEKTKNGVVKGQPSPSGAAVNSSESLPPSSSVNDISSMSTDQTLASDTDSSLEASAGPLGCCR

[9] = molecular target: Serine/threonine-protein kinase B-raf (Homo sapiens) (UniProt P15056); experiment: Inhibition of wild-type human partial length BRAF (S429 to E741 residues) expressed in mammalian expression system at 10 uM by Kinomescan method relative to control
Chain of Serine/threonine-protein kinase B-raf (Homo sapiens) (P15056 whole entry, the tested form may be a part): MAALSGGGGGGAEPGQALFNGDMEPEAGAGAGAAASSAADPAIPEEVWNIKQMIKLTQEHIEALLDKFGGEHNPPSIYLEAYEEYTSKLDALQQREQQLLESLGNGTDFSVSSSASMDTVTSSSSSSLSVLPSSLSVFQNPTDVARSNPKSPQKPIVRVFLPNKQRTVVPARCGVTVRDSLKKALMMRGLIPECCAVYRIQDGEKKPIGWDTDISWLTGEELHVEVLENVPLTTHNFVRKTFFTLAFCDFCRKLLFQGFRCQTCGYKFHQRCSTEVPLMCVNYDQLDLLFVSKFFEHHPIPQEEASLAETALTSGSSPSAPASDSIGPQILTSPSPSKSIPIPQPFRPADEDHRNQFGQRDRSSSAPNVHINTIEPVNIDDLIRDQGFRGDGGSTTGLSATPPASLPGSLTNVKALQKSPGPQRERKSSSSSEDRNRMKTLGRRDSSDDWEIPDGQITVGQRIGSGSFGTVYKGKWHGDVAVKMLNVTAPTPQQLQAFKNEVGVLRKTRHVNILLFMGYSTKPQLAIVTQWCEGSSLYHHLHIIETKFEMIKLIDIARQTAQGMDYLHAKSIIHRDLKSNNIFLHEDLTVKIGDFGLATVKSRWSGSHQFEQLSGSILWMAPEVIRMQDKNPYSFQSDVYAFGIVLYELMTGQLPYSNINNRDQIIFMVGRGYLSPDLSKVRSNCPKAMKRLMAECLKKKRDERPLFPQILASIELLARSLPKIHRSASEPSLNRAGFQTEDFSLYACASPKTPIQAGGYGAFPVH

[10] = Half life in ZDF rat; type: ADME; conditions: in vivo
[11] = Half life in Beagle dog; type: ADME, Canis lupus familiaris; conditions: in vivo
[12] = Oral bioavailability in ZDF rat; type: ADME, organism-based; conditions: in vivo
Rattus norvegicus = experiment: Antidiabetic activity in ZDF rat administered as single dose via oral gavage by OGTT; type: functional

IC50 [1] [nM] | EC50 [2] [nM] | SMILES | other results
5 | 530 | Nc1nc(NCCNc2ccc(N3CCCC3=O)c(-c3ccc(Cl)cc3Cl)n2)ccc1[N+](=O)[O-] | 
44 | 760 | CN1CCN(c2ccc(NCCNc3ccc([N+](=O)[O-])c(N)n3)nc2-c2ccc(Cl)cc2)C(=O)C1 | 
202 |  | CN1CCN(c2ccc(NCCNc3ccc([N+](=O)[O-])c(N)n3)nc2-c2ccccc2)C(=O)C1 | 
18 | 1800 | Nc1nc(NCCNc2ccc(N3CCN(CC(F)(F)F)CC3=O)c(-c3ccc(Cl)cc3Cl)n2)ccc1[N+](=O)[O-] | 
207 |  | C[C@H](CNc1ccc([N+](=O)[O-])c(N)n1)Nc1ccc(N2CCN(C)CC2=O)c(-c2ccc(Cl)cc2Cl)n1 | 
11 | 140 | Nc1nc(NCCNc2ccc(N3CCNCC3=O)c(-c3ccc(Cl)cc3Cl)n2)ccc1[N+](=O)[O-] | 
13 | 40 | Nc1nc(NCCNc2ccc(N3CCN(C4CC4)CC3=O)c(-c3ccc(Cl)cc3Cl)n2)ccc1[N+](=O)[O-] | 
29 | 1350 | CN1CCN(c2ccc(NCCNc3ccc([N+](=O)[O-])c(N)n3)nc2-c2ccccc2Cl)C(=O)C1 | 
15 | 220 | CN1CCN(c2ccc(N(C)CCNc3ccc([N+](=O)[O-])c(N)n3)nc2-c2ccc(Cl)cc2Cl)C(=O)C1 | 
3700 |  | CN1CCN(c2ccc(NCCNc3ccc([N+](=O)[O-])c(N)n3)nc2-c2ccoc2)C(=O)C1 | 
11 | 510 | Nc1nc(NCCNc2ccc(N3CCOCC3=O)c(-c3ccc(Cl)cc3Cl)n2)ccc1[N+](=O)[O-] | 
1010 |  | C[C@H](CNc1ccc(N2CCN(C)CC2=O)c(-c2ccc(Cl)cc2Cl)n1)Nc1ccc([N+](=O)[O-])c(N)n1 | 
36 | 310 | C[C@@H](CNc1ccc([N+](=O)[O-])c(N)n1)Nc1ccc(N2CCN(C)CC2=O)c(-c2ccc(Cl)cc2Cl)n1 | 
 | 770 | Cc1cnc(-c2cnc(NCCNc3ccc(C#N)cn3)nc2-c2ccc(Cl)cc2Cl)[nH]1 [LADUVIGLUSIB] | EC50 [3]: 770 nM
52 | 290 | CCc1ccc(-c2nc(NCCNc3ccc([N+](=O)[O-])c(N)n3)ccc2N2CCN(C)CC2=O)cc1 | 
13 | 70 | Nc1nc(NCCNc2ccc(N3CCCCC3=O)c(-c3ccc(Cl)cc3Cl)n2)ccc1[N+](=O)[O-] | 
66 | 1050 | C[C@@H](CNc1ccc(N2CCN(C)CC2=O)c(-c2ccc(Cl)cc2Cl)n1)Nc1ccc([N+](=O)[O-])c(N)n1 | 
8 | 130 | CN1CCN(c2ccc(NCCNc3ccc([N+](=O)[O-])c(N)n3)nc2-c2ccc(Cl)cc2Cl)C(=O)C1 | inhibition [4]: 99.5%; inhibition [5]: 95.8%; inhibition [6]: 92.2%; inhibition [7]: 97.4%; inhibition [8]: 98.3%; inhibition [9]: 91.8%; half-life [10]: 3.42 h; half-life [11]: 2.72 h; bioavailability [12]: 30%; ED50 (Rattus norvegicus): 10 mg/kg
12 | 1600 | Nc1nc(NCCNc2ccc(NC(=O)CNCCO)c(-c3ccc(Cl)cc3Cl)n2)ccc1[N+](=O)[O-] | 
13 | 1400 | CC(=O)N1CCN(c2ccc(NCCNc3ccc([N+](=O)[O-])c(N)n3)nc2-c2ccc(Cl)cc2Cl)C(=O)C1 | 
74 | 3000 | CN1CCN(c2ccc(NCCNc3ccc([N+](=O)[O-])c(N)n3)nc2-c2cccc(Cl)c2)C(=O)C1 | 
69 | 1080 | CN1CCN(c2ccc(NCCNc3ccc([N+](=O)[O-])c(N)n3)nc2-c2ccc(F)cc2F)C(=O)C1 | 
57 | 760 | CN1CCN(c2ccc(NCCNc3ccc([N+](=O)[O-])c(N)n3)nc2-c2ccccc2C(F)(F)F)C(=O)C1 | 
